Source: ChEMBL document CHEMBL4382249, “1-Arylsulfonyl indoline-benzamides as a new antitubulin agents, with inhibition of histone deacetylase” (Eur J Med Chem, 2019)

How the values were obtained:
[1] = Growth inhibition of human KB-VIN10 cells after 48 hrs by SRB assay; type: functional; conditions: KB-VIN10, 48 h
Histone deacetylase 9 = Histone deacetylase 9 (Homo sapiens, UniProt Q9UKV0); experiment: Inhibition of human HDAC9 using fluorogenic p53 (379-382) peptide RHKK(Ac) as substrate by fluorescence assay
BJAB [2] = experiment: Growth inhibition of human BJAB cells assessed as cell viability at 20 nM after 48 hrs by MTT assay (reference value: 100%)
A549 [3] = experiment: Growth inhibition of human A549 cells after 48 hrs by SRB assay; type: functional, cell-based; conditions: A549, 48 h
[4] = biological target: T1, Protein deacetylase HDAC6 (Homo sapiens, UniProt Q9UBN7); experiment: Inhibition of human HDAC6 using RHKKAc as substrate by fluorescence assay
T1 sequence (Q9UBN7 whole entry): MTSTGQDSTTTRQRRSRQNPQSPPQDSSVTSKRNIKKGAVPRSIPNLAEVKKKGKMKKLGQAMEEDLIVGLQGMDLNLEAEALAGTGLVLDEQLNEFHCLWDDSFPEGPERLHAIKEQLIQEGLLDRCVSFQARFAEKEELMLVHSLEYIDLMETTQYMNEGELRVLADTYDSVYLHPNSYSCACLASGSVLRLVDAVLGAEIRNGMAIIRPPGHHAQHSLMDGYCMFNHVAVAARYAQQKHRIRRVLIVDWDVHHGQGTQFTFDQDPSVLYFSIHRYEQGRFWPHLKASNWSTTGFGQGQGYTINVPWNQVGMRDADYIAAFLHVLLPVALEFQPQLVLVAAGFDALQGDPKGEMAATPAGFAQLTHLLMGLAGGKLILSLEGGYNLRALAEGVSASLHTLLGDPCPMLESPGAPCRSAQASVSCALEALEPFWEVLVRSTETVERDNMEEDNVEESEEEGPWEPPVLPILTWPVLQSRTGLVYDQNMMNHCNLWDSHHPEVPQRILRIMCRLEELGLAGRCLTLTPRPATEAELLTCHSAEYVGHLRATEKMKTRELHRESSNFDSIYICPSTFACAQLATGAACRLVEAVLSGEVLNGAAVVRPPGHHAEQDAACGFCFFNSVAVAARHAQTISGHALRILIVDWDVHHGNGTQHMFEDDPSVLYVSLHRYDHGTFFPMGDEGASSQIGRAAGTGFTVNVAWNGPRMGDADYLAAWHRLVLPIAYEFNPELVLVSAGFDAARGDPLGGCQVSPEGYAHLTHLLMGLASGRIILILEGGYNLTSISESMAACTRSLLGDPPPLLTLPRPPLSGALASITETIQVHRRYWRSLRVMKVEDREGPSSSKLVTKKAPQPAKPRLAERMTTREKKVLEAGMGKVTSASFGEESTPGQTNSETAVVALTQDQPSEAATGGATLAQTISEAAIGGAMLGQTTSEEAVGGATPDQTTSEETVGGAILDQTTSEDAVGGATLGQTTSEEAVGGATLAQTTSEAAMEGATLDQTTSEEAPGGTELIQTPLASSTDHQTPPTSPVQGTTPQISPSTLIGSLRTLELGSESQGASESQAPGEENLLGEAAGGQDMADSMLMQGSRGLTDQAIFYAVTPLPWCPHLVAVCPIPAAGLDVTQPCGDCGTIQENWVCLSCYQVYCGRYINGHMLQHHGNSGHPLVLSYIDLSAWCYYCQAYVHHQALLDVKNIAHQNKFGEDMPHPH

[5] = Growth inhibition of human KB-S15 cells after 48 hrs by SRB assay; type: functional; conditions: KB-S15, 48 h
A549 [6] = experiment: Antitumor activity against human A549 cells xenografted in Balb/c nude mouse assessed as tumor growth inhibition at 50 mg/kg, ip daily measured up to 18 days relative to control; type: functional; conditions: 432 h, read-out: TGI
BJAB [7] = experiment: Growth inhibition of human BJAB cells assessed as cell viability at 10 nM after 48 hrs by MTT assay (reference value: 100%)
[8] = Toxicity in NOD/SCID mouse xenografted with human BJAB cells assessed as change in body weight at 50 mg/kg, iv daily for 5 days/week measured on day 25 post first dose; type: organism-based; conditions: in vivo, 120 h
Histone deacetylase 8 = biological target: T2, Histone deacetylase 8 (Homo sapiens, UniProt Q9BY41)
T2 sequence (Q9BY41 whole entry): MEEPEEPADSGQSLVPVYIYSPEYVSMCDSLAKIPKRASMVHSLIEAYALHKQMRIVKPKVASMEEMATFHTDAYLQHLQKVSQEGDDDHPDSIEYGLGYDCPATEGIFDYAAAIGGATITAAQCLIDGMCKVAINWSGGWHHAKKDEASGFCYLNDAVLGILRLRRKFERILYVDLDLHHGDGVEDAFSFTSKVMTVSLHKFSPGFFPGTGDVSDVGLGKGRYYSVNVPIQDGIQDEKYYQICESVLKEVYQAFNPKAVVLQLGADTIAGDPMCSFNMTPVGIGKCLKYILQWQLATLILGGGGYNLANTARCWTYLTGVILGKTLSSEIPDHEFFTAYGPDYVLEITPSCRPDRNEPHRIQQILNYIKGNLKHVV

BJAB [9] = experiment: Growth inhibition of human BJAB cells assessed as cell viability at 5 nM after 48 hrs by MTT assay (reference value: 100%)
Tubulin (Bos taurus) = Tubulin (Bos taurus) (UniProt Q6B856+Q862L2+Q862F3); conditions: at 1 µM
Histone deacetylase 3 = Histone deacetylase 3 (Homo sapiens, UniProt O15379)
BJAB [10] = experiment: Growth inhibition of human BJAB cells assessed as cell viability at 80 nM after 48 hrs by MTT assay (reference value: 100%)
Histone deacetylase 4 = Histone deacetylase 4 (Homo sapiens, UniProt P56524); experiment: Inhibition of human HDAC4 using fluorogenic p53-derived peptide RHKK(Ac) as substrate by fluorescence assay
Sequence of Histone deacetylase 4 (P56524 whole entry): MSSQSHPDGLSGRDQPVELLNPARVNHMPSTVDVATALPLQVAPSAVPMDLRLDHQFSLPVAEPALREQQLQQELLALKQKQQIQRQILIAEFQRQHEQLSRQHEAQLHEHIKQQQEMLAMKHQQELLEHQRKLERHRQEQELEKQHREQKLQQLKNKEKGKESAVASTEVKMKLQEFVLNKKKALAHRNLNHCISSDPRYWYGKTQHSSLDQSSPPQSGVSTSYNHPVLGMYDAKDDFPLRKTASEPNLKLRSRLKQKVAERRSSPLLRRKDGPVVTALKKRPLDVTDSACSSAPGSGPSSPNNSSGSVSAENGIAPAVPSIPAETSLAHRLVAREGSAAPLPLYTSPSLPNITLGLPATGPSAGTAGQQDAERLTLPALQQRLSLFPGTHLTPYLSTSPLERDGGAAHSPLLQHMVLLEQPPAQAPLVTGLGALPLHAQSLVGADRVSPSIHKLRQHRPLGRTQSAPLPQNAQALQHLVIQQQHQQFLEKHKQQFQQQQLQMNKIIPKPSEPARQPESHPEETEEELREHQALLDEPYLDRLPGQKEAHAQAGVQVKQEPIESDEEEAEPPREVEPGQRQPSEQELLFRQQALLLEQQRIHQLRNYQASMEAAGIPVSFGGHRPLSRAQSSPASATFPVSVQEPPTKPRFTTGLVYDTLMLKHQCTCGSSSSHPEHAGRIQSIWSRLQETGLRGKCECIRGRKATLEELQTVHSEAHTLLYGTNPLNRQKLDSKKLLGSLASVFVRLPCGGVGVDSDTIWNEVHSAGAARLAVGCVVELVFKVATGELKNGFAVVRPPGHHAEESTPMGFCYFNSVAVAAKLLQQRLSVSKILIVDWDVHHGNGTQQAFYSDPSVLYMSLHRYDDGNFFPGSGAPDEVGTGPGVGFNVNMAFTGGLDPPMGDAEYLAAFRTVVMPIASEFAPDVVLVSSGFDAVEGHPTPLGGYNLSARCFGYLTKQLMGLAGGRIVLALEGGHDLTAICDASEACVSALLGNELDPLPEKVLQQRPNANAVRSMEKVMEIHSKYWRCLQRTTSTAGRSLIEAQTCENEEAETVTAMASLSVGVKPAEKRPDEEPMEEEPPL

Sequence of Histone deacetylase 3 (O15379 whole entry): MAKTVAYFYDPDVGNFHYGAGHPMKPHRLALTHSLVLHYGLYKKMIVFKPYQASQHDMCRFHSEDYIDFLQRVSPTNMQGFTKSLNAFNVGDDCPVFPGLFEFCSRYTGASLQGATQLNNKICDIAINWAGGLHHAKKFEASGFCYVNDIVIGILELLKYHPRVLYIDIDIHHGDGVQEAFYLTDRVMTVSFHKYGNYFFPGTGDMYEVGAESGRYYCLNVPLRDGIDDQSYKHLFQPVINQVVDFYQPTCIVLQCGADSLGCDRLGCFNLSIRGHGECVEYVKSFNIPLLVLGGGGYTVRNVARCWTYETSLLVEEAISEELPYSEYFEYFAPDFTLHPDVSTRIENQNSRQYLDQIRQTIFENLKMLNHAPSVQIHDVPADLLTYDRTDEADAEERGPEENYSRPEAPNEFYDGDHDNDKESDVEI
Sequence of Histone deacetylase 9 (Q9UKV0 whole entry): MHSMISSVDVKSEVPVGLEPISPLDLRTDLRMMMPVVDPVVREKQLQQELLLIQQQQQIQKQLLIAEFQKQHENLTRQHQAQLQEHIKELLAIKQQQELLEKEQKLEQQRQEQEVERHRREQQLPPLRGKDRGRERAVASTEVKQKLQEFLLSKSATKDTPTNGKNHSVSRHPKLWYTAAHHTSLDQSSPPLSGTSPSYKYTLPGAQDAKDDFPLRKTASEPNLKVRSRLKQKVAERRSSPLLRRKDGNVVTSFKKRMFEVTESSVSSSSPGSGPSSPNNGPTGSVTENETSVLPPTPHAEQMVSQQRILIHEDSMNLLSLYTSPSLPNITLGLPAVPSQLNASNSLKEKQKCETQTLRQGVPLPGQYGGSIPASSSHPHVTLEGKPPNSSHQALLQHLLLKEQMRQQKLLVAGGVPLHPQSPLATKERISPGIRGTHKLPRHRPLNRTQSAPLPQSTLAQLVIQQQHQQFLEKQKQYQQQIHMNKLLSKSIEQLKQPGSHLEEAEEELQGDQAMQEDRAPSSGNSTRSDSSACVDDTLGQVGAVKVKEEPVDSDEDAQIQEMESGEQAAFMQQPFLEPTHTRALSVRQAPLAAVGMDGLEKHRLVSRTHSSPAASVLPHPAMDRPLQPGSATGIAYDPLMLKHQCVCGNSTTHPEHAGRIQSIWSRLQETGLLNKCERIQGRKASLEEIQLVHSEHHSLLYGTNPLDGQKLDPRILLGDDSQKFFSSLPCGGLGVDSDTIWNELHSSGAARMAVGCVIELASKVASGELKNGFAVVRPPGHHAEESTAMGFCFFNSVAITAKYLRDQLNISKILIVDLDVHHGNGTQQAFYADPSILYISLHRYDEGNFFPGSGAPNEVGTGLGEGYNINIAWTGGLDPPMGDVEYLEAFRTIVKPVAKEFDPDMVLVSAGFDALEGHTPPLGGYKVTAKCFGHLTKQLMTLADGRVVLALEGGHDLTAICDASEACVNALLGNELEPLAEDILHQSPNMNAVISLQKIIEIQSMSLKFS

IC50 (Histone deacetylase 9): Not Active | IC50 (A549 [3]): 79 nM | IC50 [4]: 314 nM | IC50 (Histone deacetylase 8): Not Active | inhibition (Tubulin (Bos taurus)): 69.9% | IC50 (Histone deacetylase 3): Not Active | IC50 (Histone deacetylase 4): Not Active
SMILES: COc1ccc(S(=O)(=O)N2CCc3cccc(NCc4ccc(C(=O)Nc5ccccc5N)cc4)c32)cc1
IC50 [1]: 64.7 nM | viability at 0.02 µM (BJAB [2]): 70% | IC50 [5]: 43.9 nM | inhibition in vivo at 50 mg/kg (A549 [6]): 62.9% | viability at 0.01 µM (BJAB [7]): 69% | Activity [8]: Non-Toxic | viability at 0.005 µM (BJAB [9]): 71% | viability at 0.08 µM (BJAB [10]): 22%
